Reference: patent publication US20240101570A1 (AMGEN INC., priority 2020, published 2024)

Key:
HCT116 MTAP null cells = experiment: HCT116 MTAP null cell proliferation / viability (CellTiter-Glo, 6 days); assay type: cell-based; settings: HCT116-MTAP null, 144 h, HCT116 MTAP null cells, 6 days, CellTiter-Glo; read-out: HCT-116 MTAP null IC50
Procedure, shortened: (§1)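 CellTiter-Glo luminescence, 6-day exposure, RPMI 1640 + 10% FBS. Dosing: 1:3 series (8-9 pts, top 1 or 10 μM) or 1:2 series (22 pts, top 10 or 50 μM), DMSO control. IC50 = 50% of control via curve fit.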

HCT116 WT cells = experiment: HCT116 WT cell proliferation / viability (CellTiter-Glo, 6 days); assay type: cell-based; settings: Homo sapiens, HCT-116, 144 h, HCT116 WT cells, 6 days, CellTiter-Glo; read-out: HCT-116 WT IC50
Procedure, shortened: as §1

SMILES	IC50 (HCT116 MTAP null cells)	IC50 (HCT116 WT cells)
C[C@H]1OCc2c1c(N)nc1ccc(C(=O)N(Cc3ccc(C(F)(F)F)cn3)CC3(C)CC3)cc21 [Example 339, (3R)-4-amino-3-methyl-N-((1-methylcyclopropyl)methyl)-N-((5-(trifluoromethyl)-2-pyridinyl)methyl)-1,3-dihydrofuro[3,4-c]quinoline-8-carboxamide]	25 nM	611 nM
CC(C)(C)CN(Cc1ccc(C(F)(F)F)cn1)C(=O)c1ccc2nc(N)c3c(c2c1)COC3(C)C [Example 340, 4-amino-N-(2,2-dimethylpropyl)-3,3-dimethyl-N-((5-(trifluoromethyl)-2-pyridinyl)methyl)-1,3-dihydrofuro[3,4-c]quinoline-8-carboxamide]	2950 nM	> 10000 nM
CC1(CN(Cc2ccc(C(F)(F)F)cn2)C(=O)c2ccc3nc(N)c4c(c3c2)COC4(C)C)CC1 [Example 341, 4-amino-3,3-dimethyl-N-((1-methylcyclopropyl)methyl)-N-((5-(trifluoromethyl)-2-pyridinyl)methyl)-1,3-dihydrofuro[3,4-c]quinoline-8-carboxamide]	212 nM	3790 nM
Nc1nc2ccc(C(=O)N(Cc3ccc(C4CC4)cn3)C3CC3)cc2c2c1COC2 [Example 343, 4-amino-N-cyclopropyl-N-((5-cyclopropyl-2-pyridinyl)methyl)-1,3-dihydrofuro[3,4-c]quinoline-8-carboxamide]	270 nM	8240 nM
CN(Cc1ccc(C(F)(F)F)cn1)C(=O)c1cc2c3c(c(N)nc2cn1)COC3 [Example 344, 4-amino-N-methyl-N-((5-(trifluoromethyl)-2-pyridinyl)methyl)-1,3-dihydrofuro[3,4-c][1,7]naphthyridine-8-carboxamide]	244 nM	> 10000 nM
CC(C)N(Cc1ccc(C(F)(F)F)cn1)C(=O)c1cc2c3c(c(N)nc2cc1F)COC3 [Example 345, 4-amino-7-fluoro-N-(2-propanyl)-N-((5-(trifluoromethyl)-2-pyridinyl)methyl)-1,3-dihydrofuro[3,4-c]quinoline-8-carboxamide]	11 nM	210 nM
CC(C)N(Cc1ccc(C#N)cn1)C(=O)c1cc2c3c(c(N)nc2cn1)COC3 [Example 346, 4-amino-N-((5-cyano-2-pyridinyl)methyl)-N-(2-propanyl)-1,3-dihydrofuro[3,4-c][1,7]naphthyridine-8-carboxamide]	1090 nM	19400 nM
N#Cc1ccc(CN(C(=O)c2cc3c4c(c(N)nc3cn2)COC4)C2CC2)nc1 [Example 347, 4-amino-N-((5-cyano-2-pyridinyl)methyl)-N-cyclopropyl-1,3-dihydrofuro[3,4-c][1,7]naphthyridine-8-carboxamide]	712 nM	43800 nM
Nc1nc2cnc(C(=O)N(Cc3ccc(C4CC4)cn3)C3CC3)cc2c2c1COC2 [Example 348, 4-amino-N-cyclopropyl-N-((5-cyclopropyl-2-pyridinyl)methyl)-1,3-dihydrofuro[3,4-c][1,7]naphthyridine-8-carboxamide]	155 nM	9040 nM
CN(Cc1ccc(C2CC2)cn1)C(=O)c1cc2c3c(c(N)nc2cn1)COC3 [Example 349, 4-amino-N-((5-cyclopropyl-2-pyridinyl)methyl)-N-methyl-1,3-dihydrofuro[3,4-c][1,7]naphthyridine-8-carboxamide]	325 nM	9190 nM
CC(C)N(Cc1ccc(C2CC2)nc1)C(=O)c1ccc2nc(N)c3c(c2c1)CO[C@@H]3C [Example 350, (3R)-4-amino-N-((6-cyclopropyl-3-pyridinyl)methyl)-3-methyl-N-(2-propanyl)-1,3-dihydrofuro[3,4-c]quinoline-8-carboxamide]	332 nM	22100 nM
C[C@H]1OCc2c1c(N)nc1ccc(C(=O)N(Cc3ccc(C(F)(F)F)cn3)C3CC3)cc21 [Example 351, (3R)-4-amino-N-cyclopropyl-3-methyl-N-((5-(trifluoromethyl)-2-pyridinyl)methyl)-1,3-dihydrofuro[3,4-c]quinoline-8-carboxamide]	48 nM	3510 nM
CN(Cc1ccc(C(F)(F)F)nn1)C(=O)c1ccc2nc(N)c3c(c2c1)COC3 [Example 352, 4-amino-N-methyl-N-((6-(trifluoromethyl)-3-pyridazinyl)methyl)-1,3-dihydrofuro[3,4-c]quinoline-8-carboxamide]	872 nM	> 10000 nM
C[C@H]1OCc2c1c(N)nc1ccc(C(=O)N(Cc3ccc(C(F)(F)F)nn3)C3CC3)cc21 [Example 353, (3R)-4-amino-N-cyclopropyl-3-methyl-N-((6-(trifluoromethyl)-3-pyridazinyl)methyl)-1,3-dihydrofuro[3,4-c]quinoline-8-carboxamide]	124 nM	> 10000 nM
CC(C)N(Cc1ccc(C#N)cn1)C(=O)c1ccc2nc(N)c3c(c2c1)CO[C@@H]3C [Example 354, (3R)-4-amino-N-((5-cyano-2-pyridinyl)methyl)-3-methyl-N-(2-propanyl)-1,3-dihydrofuro[3,4-c]quinoline-8-carboxamide]	623 nM	21400 nM
C[C@H]1OCc2c1c(N)nc1ccc(C(=O)N(Cc3ccc(C#N)cn3)C3CC3)cc21 [Example 355, (3R)-4-amino-N-((5-cyano-2-pyridinyl)methyl)-N-cyclopropyl-3-methyl-1,3-dihydrofuro[3,4-c]quinoline-8-carboxamide]	171 nM	19000 nM
C[C@H]1OCc2c1c(N)nc1ccc(C(=O)N(C)Cc3ccc(C4CC4)cn3)cc21 [Example 356, (3R)-4-amino-N-((5-cyclopropyl-2-pyridinyl)methyl)-N,3-dimethyl-1,3-dihydrofuro[3,4-c]quinoline-8-carboxamide]	92 nM	5360 nM
Nc1nc2cc(F)c(C(=O)N(Cc3ccc(C(F)(F)F)nn3)C3CC3)cc2c2c1COC2 [Example 357, 4-amino-N-cyclopropyl-7-fluoro-N-((6-(trifluoromethyl)-3-pyridazinyl)methyl)-1,3-dihydrofuro[3,4-c]quinoline-8-carboxamide]	115 nM	4270 nM
CC(C)N(Cc1ccc(C(F)(F)F)nn1)C(=O)c1cc2c3c(c(N)nc2cc1F)COC3 [Example 358, 4-amino-7-fluoro-N-(2-propanyl)-N-((6-(trifluoromethyl)-3-pyridazinyl)methyl)-1,3-dihydrofuro[3,4-c]quinoline-8-carboxamide]	121 nM	8160 nM
CN(Cc1ccc(C(F)(F)F)nn1)C(=O)c1cc2c3c(c(N)nc2cc1F)COC3 [Example 359, 4-amino-7-fluoro-N-methyl-N-((6-(trifluoromethyl)-3-pyridazinyl)methyl)-1,3-dihydrofuro[3,4-c]quinoline-8-carboxamide]	226 nM	10200 nM
CCN(Cc1ccc(C(F)(F)F)cn1)C(=O)c1ccc2nc(N)c3c(c2c1)CO[C@@H]3C [Example 360, (3R)-4-amino-N-ethyl-3-methyl-N-((5-(trifluoromethyl)-2-pyridinyl)methyl)-1,3-dihydrofuro[3,4-c]quinoline-8-carboxamide]	53 nM	3070 nM
CCN(Cc1ccc(C(F)(F)F)cn1)C(=O)c1cc2c3c(c(N)nc2cn1)COC3 [Example 361, 4-amino-N-ethyl-N-((5-(trifluoromethyl)-2-pyridinyl)methyl)-1,3-dihydrofuro[3,4-c][1,7]naphthyridine-8-carboxamide]	173 nM	7750 nM
CCN(Cc1ccc(C(F)(F)F)cn1)C(=O)c1ccc2nc(N)c3c(c2c1)COC3 [Example 362, 4-amino-N-ethyl-N-((5-(trifluoromethyl)-2-pyridinyl)methyl)-1,3-dihydrofuro[3,4-c]quinoline-8-carboxamide]	76 nM	2210 nM
CC(C)N(Cc1ccc(C2CC2)nc1)C(=O)c1cc2c3c(c(N)nc2cc1F)COC3 [Example 363, 4-amino-N-((6-cyclopropyl-3-pyridinyl)methyl)-7-fluoro-N-(2-propanyl)-1,3-dihydrofuro[3,4-c]quinoline-8-carboxamide]	36 nM	1180 nM
CC(C)N(Cc1ccc(C2CC2)cn1)C(=O)c1ccc2nc(N)c3c(c2c1)COC3 [Example 364, 4-amino-N-((5-cyclopropyl-2-pyridinyl)methyl)-N-(2-propanyl)-1,3-dihydrofuro[3,4-c]quinoline-8-carboxamide]	58 nM	1760 nM
Nc1nc2cnc(C(=O)N(Cc3ccc(C(F)(F)F)cn3)C3CC3)cc2c2c1COC2 [Example 365, 4-amino-N-cyclopropyl-N-((5-(trifluoromethyl)-2-pyridinyl)methyl)-1,3-dihydrofuro[3,4-c][1,7]naphthyridine-8-carboxamide]	76 nM	6500 nM
CC(C)N(Cc1ccc(C(F)(F)F)nn1)C(=O)c1cc2c3c(c(N)nc2cn1)COC3 [Example 366, 4-amino-N-(2-propanyl)-N-((6-(trifluoromethyl)-3-pyridazinyl)methyl)-1,3-dihydrofuro[3,4-c][1,7]naphthyridine-8-carboxamide]	175 nM	12500 nM
CN(Cc1ccc(C#N)cn1)C(=O)c1cc2c3c(c(N)nc2cn1)COC3 [Example 367, 4-amino-N-((5-cyano-2-pyridinyl)methyl)-N-methyl-1,3-dihydrofuro[3,4-c][1,7]naphthyridine-8-carboxamide]	2280 nM	> 50000 nM
C[C@H]1OCc2c1c(N)nc1ccc(C(=O)N(Cc3ccc(C4CC4)cn3)C3CC3)cc21 [Example 368, (3R)-4-amino-N-cyclopropyl-N-((5-cyclopropyl-2-pyridinyl)methyl)-3-methyl-1,3-dihydrofuro[3,4-c]quinoline-8-carboxamide]	65 nM	3260 nM
